Results published in paper PMC10606488, “Usnic Acid Derivatives Inhibit DNA Repair Enzymes Tyrosyl-DNA Phosphodiesterases 1 and 2 and Act as Potential Anticancer Agents” (Genes, 2023).
Read-outs that look alike come from different tables or passages of the source.

Columns and labels:
[1] = test system: purified recombinant human Tdp1; conditions: cited from earlier work
[2] = molecular target: T1, Recombinant human Tdp2 (Homo sapiens, UniProt O95551); test: Gel-based Tdp2 activity assay; assay type: biochemical
T1 construct: made in house
T1 sequence (O95551 1-362): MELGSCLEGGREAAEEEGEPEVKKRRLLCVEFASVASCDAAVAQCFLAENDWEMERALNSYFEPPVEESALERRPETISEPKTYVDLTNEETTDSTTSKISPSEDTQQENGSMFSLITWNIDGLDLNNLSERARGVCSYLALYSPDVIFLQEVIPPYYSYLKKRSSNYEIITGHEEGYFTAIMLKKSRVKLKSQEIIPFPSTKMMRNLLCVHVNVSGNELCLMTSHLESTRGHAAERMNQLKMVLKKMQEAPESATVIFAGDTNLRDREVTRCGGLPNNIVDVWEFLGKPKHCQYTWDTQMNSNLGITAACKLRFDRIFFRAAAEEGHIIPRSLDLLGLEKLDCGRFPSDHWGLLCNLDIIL

[3] = test system: HEK293FT Tdp2−/− cells; test: Intrinsic cytotoxicity, MTT test, Tdp2 knockout cells; assay type: cell-based, human; conditions: 10 μM compound, 3 days
Experimental: (§1) The intrinsic cytotoxicity of the compounds was examined against cell line HEK293FT (human embryonic kidney) with a standard MTT test. The cells were grown in DMEM-F12 medium, with 50 IU/mL penicillin and 50 µg/mL streptomycin (Thermo Fisher Scientific, Waltham, MA, USA) in the presence of 10% fetal bovine serum (Biolot, Saint-Petersburg, Russia) in 5% CO2 atmosphere. Tested compounds were added after formation of a 30–50% monolayer to the medium (1:100 added reagents to the total volume of the culture medium, thus the final concentration of DMSO was 1%) and the cell culture was monitored for 3 days. Control cells were grown in the presence of 1% DMSO. The measurements of cytotoxicity were carried out in three repeats.
We performed a selection of protospacers for human Tdp2 gene knockout with the Benchling CRISPR tool (https://www.benchling.com/) (accessed on 13 February 2020). Two 20-nt protospacer sequences were selected for deletion of exon 6 (PAM sequences in brackets) of the human Tdp2 gene (NM_016614.3): Tdp2-gRNA1 […](AGG) and Tdp2-gRNA2 […](TGG). The scheme of protospacers in the Tdp2 gene is shown on Figure S9A in the Supplementary Materials. Oligonucleotides were cloned in a pSpCas9(BB)-2A-GFP (PX458) plasmid that was a kind gift from Dr. Feng Zhang (Addgene plasmid #48138; http://n2t.net/addgene:48138 (accessed on 13 February 2020), RRID:Addgene_48138) as previously described. Transfection-grade DNA plasmids were isolated with the Plasmid Plus Midi Kit (QIAGEN, Hilden, Germany).
We transfected HEK293FT cells with the constructed plasmids (0.25 µg of each) pX458-Tdp2-gRNA1 and pX458-Tdp2-gRNA2 using Lipofectamine 3000 Reagent (Thermofisher Scientific, Waltham, MA, USA). We used growth medium containing DMEM/F12 (Thermofisher Scientific, MA, USA) 1:1, 10% fetal bovine serum (Thermofisher Scientific, MA, USA), 100 U/mL penicillin–streptomycin (Thermofisher Scientific, MA, USA), and GlutaMAX (1×) (Thermofisher Scientific, Waltham, MA, USA). […]

[4] = test system: HEK293FT wild-type cells; test: Intrinsic cytotoxicity, MTT test, wild-type cells; assay type: cell-based, human; conditions: 10 μM compound, 3 days
Experimental: as §1
Since Tdp inhibitors are intended to be used in therapeutic cocktails, non-toxic concentrations of the compounds are required so as not to exacerbate the already serious side effects of therapy. We studied the intrinsic cytotoxicity of the compounds, (−)-11a,d,h, that inhibited Tdp2 on HEK293FT wild-type cells and Tdp2 knockout (Tdp2^−/−) cells (Figure 3). Tdp2 knockout HEK293FT cells were obtained using the CRISPR/Cas9 method. At 10 μM concentration, the cell survival was not less than 80% for both types of cells. This concentration was chosen for further studies of the ability of the compounds to sensitize the effect of the Top2 inhibitor etoposide.

[5] = Effect of compounds on the cytotoxicity of etoposide, Tdp2 knockout cells; assay type: cell-based; conditions: human, HEK293FT Tdp2 knockout (Tdp2−/−) cells, with vehicle (DMSO 1%)
Experimental: as §1
(§2) Different concentrations of etoposide and fixed concentrations of usnic acid derivatives 10 μM were used to evaluate the effect of the tested compounds on the cytotoxicity of etoposide.
We performed a selection of protospacers for human Tdp2 gene knockout with the Benchling CRISPR tool (https://www.benchling.com/) (accessed on 13 February 2020). […]
(§3) We studied the effect of Tdp2 inhibitors on the cytotoxic effect of etoposide. The CC50 for etoposide was measured in the presence and absence of compounds. […] The significance of the differences between the metabolic activity of WT and Tdp2^−/− cells was assessed using the Mann–Whitney test. […]

[6] = Effect of compounds on the cytotoxicity of etoposide, wild-type cells; assay type: cell-based; conditions: human, HEK293FT wild-type cells; with vehicle (DMSO 1%), HEK293FT WT
Experimental: as §1, §2
as §3, with “compounds. The sensitivity to etoposide in Tdp2 knockout cells was close to wild-type cells (Figure 4a).” for “compounds.”

[7] = molecular target: T1, Recombinant human Tdp2; design: method as in PMID 34768766, PMID 35011303; conditions: Figure 2; cited from earlier work
[8] = molecular target: tyrosyl-DNA phosphodiesterase 2; conditions: Figure 2; read-out: IC50 (Tdp2); cited from earlier work
[9] = (+)-usnic acid derivatives, read-out: Tdp1 IC50
[10] = (−)-usnic acid derivatives, read-out: Tdp1 IC50
[11] = Figure 1, read-out: IC50 (Tdp1)
[12] = Figure 2, read-out: IC50 (Tdp1)

Which IC50 [1, 9] does the source give for `CC(=O)C1=C(O)C=C2Oc3c(-c4csc(NN=Cc5c[nH]c6ccccc56)n4)c(O)c(C)c(O)c3C2(C)C1=O` (single isomer, unassigned; (+)) [(+)-11d] here?
The IC50 was 0.026 ± 0.006 µM.

And the IC50 ([2]; (+)-usnic acid derivatives)?
The IC50 was > 50 µM.

Which results are given for `CC(=O)C1=C(O)C=C2Oc3c(-c4csc(NN=Cc5c[nH]c6ccccc56)n4)c(O)c(C)c(O)c3C2(C)C1=O` (single isomer, unassigned; (-)) [(−)-11d]?
IC50 [1, 10]: 0.057 ± 0.001 µM; cell survival [3]: not less than 80%; IC50 ([2]; (−)-usnic acid derivatives): 6 ± 3 µM; cell survival [4]: not less than 80%

Which IC50 [1, 9] does the source give for `COc1ccc(C=NNc2nc(-c3c(O)c(C)c(O)c4c3OC3=CC(O)=C(C(C)=O)C(=O)C34C)cs2)cc1CN1CCN(c2ccc(F)cc2)CC1` (single isomer, unassigned; (+)) [(+)-11h] here?
Its IC50 is 0.08 ± 0.007 µM.

What about the IC50 ([2]; (+)-usnic acid derivatives) of the same compound?
Its IC50 is > 50 µM.

With `CC(C)=CCC/C(C)=C/COc1ccc2c(-c3ccc(I)cc3)cc(=O)oc2c1` [compound 2, reference compound] as the compound, how does the IC50 [1, 11] read?
The IC50 was 0.62 µM.

Which IC50 [1, 10] does the source give for `CC(=O)C1=C(O)C=C2Oc3c(-c4csc(NN=Cc5ccc[nH]5)n4)c(O)c(C)c(O)c3C2(C)C1=O` (single isomer, unassigned; (-)) [(−)-11a] here?
The IC50 was 0.018 ± 0.001 µM.

What about the cell survival [3] of the same compound?
The cell survival was “not less than 80%”.

What about the IC50 ([2]; (−)-usnic acid derivatives) of the same compound?
The IC50 was 8 ± 4 µM.

What about the cell survival [4] of the same compound?
Its cell survival is “not less than 80%”.

With `CC(=O)c1c(O)c(C)c(O)c2c1OC1=CC(=O)/C(=C(/C)NCCCc3cc(C(C)(C)C)c(O)c(C(C)(C)C)c3)C(=O)[C@@]12C` [compound 3, reference compound] as the compound, how does the IC50 [1, 11] read?
Its IC50 is 0.16 µM.

With `COc1cc([C@@H]2c3cc4c(cc3[C@@H](O[C@@H]3O[C@@H]5CO[C@@H](C)O[C@H]5[C@H](O)[C@H]3O)[C@H]3COC(=O)[C@H]23)OCO4)cc(OC)c1O` [etoposide] as the compound, how does the CC50 at 3 days [5] read?
The CC50 at 3 days was 2.3 µM.

And the CC50 at 3 days [6]?
Its CC50 at 3 days is 2.4 µM.

Which IC50 [1, 12] does the source give for `C[C@H](CCC(=O)NCCc1c[nH]c2ccccc12)[C@H]1CCC2C3CCC4C[C@H](OCc5ccccc5)CC[C@]4(C)C3C[C@H](O)[C@@]21C` (stereo partly shown) [compound 8, reference compound] here?
The IC50 was 0.24 µM.

What about the IC50 [7] of the same compound?
Its IC50 is ~1000 µM.

With `CC(=O)C1=C(O)C=C2Oc3c(-c4csc(NN=Cc5ccc[nH]5)n4)c(O)c(C)c(O)c3C2(C)C1=O` (single isomer, unassigned; (+)) [(+)-11a] as the compound, how does the IC50 [1, 9] read?
Its IC50 is 0.188 ± 0.003 µM.

What about the IC50 ([2]; (+)-usnic acid derivatives) of the same compound?
Its IC50 is > 50 µM.

For `NC1=CC(N)=C2C=CC(=O)N=C2C1=O` [compound 6], which IC50 [8] is on record?
The IC50 was 1.7 µM.

With `CC(=O)C1=C(O)C=C2Oc3c(-c4csc(N/N=C/c5ccc(Br)cc5)n4)c(O)c(C)c(O)c3[C@@]2(C)C1=O` [compound 4, reference compound] as the compound, how does the IC50 [1, 11] read?
The IC50 was 0.026 µM.

With `CC(=O)C1=C(O)C=C2Oc3c(C(=O)CSC4=NCCS4)c(O)c(C)c(O)c3[C@@]2(C)C1=O` [compound 7, reference compound] as the compound, how does the IC50 [1, 12] read?
The IC50 was 4.4 µM.

And the IC50 [7]?
Its IC50 is ~1000 µM.

With `COc1ccc(C=NNc2nc(-c3c(O)c(C)c(O)c4c3OC3=CC(O)=C(C(C)=O)C(=O)C34C)cs2)cc1CN1CCN(c2ccc(F)cc2)CC1` (single isomer, unassigned; (-)) [(−)-11h] as the compound, how does the IC50 [1, 10] read?
The IC50 was 0.059 ± 0.005 µM.

What about the cell survival [3] of the same compound?
Its cell survival is “not less than 80%”.

And the IC50 ([2]; (−)-usnic acid derivatives)?
Its IC50 is 9 ± 1 µM.

What about the cell survival [4] of the same compound?
The cell survival was “not less than 80%”.
